Measurements: ChEMBL document CHEMBL1821657, “Tritoniopsins A-D, cladiellane-based diterpenes from the South China Sea nudibranch Tritoniopsis elegans and its prey Cladiella krempfi” (J Nat Prod, 2011)
The source made the active and inactive calls. The calls are words filed in the database; no cut-off is given here.

What was measured:
HeLa = assay: Cytotoxicity against human HeLa cells assessed as cell growth inhibition after 48 hrs; type: functional, cell-based
3T3-L1 = assay: Cytotoxicity against mouse 3T3L1 cells assessed as cell growth inhibition after 48 hrs; type: cell-based; conditions: 3T3-L1, 48 h
C6 = assay: Cytotoxicity against rat C6 cells assessed as cell growth inhibition after 48 hrs; type: functional, cell-based
H9c2 = assay: Cytotoxicity against rat H9c2 cells assessed as cell growth inhibition after 48 hrs; type: cell-based; conditions: H9c2, 48 h
Caco-2 = assay: Cytotoxicity against human Caco2 cells assessed as cell growth inhibition after 48 hrs; type: functional, cell-based; conditions: Caco-2, 48 h

C=C1C[C@H]2O[C@H]([C@@H]3[C@@H]4C[C@@H](OC[C@@H]4C)[C@](C)(O)[C@@H]32)[C@](C)(OC(=O)CCC)CC[C@@H]1OO [TRITONIOPSIN B]
growth inhibition (GI) (HeLa): inactive | IC50 (3T3-L1): 40 µM | growth inhibition (GI) (C6): inactive | IC50 (H9c2): 40 µM | IC50 (Caco-2): 40 µM
